Assay: xn = mol fraction of the nth substance listed
Conditions: 101 kPa, Liquid; for viscosity: Capillary tube (Ostwald / Ubbelohde) method

CC(=O)O [acetic acid] + CN(C)C=O
Conditions | mass density [kg/m3] | viscosity [mPa·s]
303.15 K, x1 = 0.1004 | 950.1 | 0.847
303.15 K, x1 = 0.2009 | 961.18 | 0.967
303.15 K, x1 = 0.3012 | 972.65 | 1.108
303.15 K, x1 = 0.4014 | 984.49 | 1.283
303.15 K, x1 = 0.5014 | 996.33 | 1.457
303.15 K, x1 = 0.6014 | 1007.74 | 1.613
303.15 K, x1 = 0.7011 | 1018.12 | 1.656
303.15 K, x1 = 0.8008 | 1027.13 | 1.582
303.15 K, x1 = 0.9006 | 1034.47 | 1.375
303.15 K, x1 = 1 | 1038.66 | 1.059
313.15 K, x1 = 0.1004 | 940.75 | 0.75
313.15 K, x1 = 0.2009 | 951.76 | 0.848
313.15 K, x1 = 0.3012 | 963.18 | 0.973
313.15 K, x1 = 0.4014 | 974.95 | 1.112
313.15 K, x1 = 0.5014 | 986.68 | 1.249
313.15 K, x1 = 0.6014 | 997.98 | 1.357
313.15 K, x1 = 0.7011 | 1008.11 | 1.39
313.15 K, x1 = 0.8008 | 1016.84 | 1.331
313.15 K, x1 = 0.9006 | 1023.84 | 1.166
313.15 K, x1 = 1 | 1027.37 | 0.92
323.15 K, x1 = 0.1004 | 931.27 | 0.669
323.15 K, x1 = 0.2009 | 942.27 | 0.752
323.15 K, x1 = 0.3012 | 953.63 | 0.85
323.15 K, x1 = 0.4014 | 965.33 | 0.965
323.15 K, x1 = 0.5014 | 976.95 | 1.071
323.15 K, x1 = 0.6014 | 988.11 | 1.157
323.15 K, x1 = 0.7011 | 998.02 | 1.18
323.15 K, x1 = 0.8008 | 1006.49 | 1.132
323.15 K, x1 = 0.9006 | 1013.13 | 1.002
323.15 K, x1 = 1 | 1016.08 | 0.804
333.15 K, x1 = 0.1004 | 921.19 | 0.597
333.15 K, x1 = 0.2009 | 932.18 | 0.673
333.15 K, x1 = 0.3012 | 943.49 | 0.755
333.15 K, x1 = 0.4014 | 955.11 | 0.843
333.15 K, x1 = 0.5014 | 966.55 | 0.935
333.15 K, x1 = 0.6014 | 977.59 | 0.998
333.15 K, x1 = 0.7011 | 987.28 | 1.015
333.15 K, x1 = 0.8008 | 995.48 | 0.976
333.15 K, x1 = 0.9006 | 1001.78 | 0.87
333.15 K, x1 = 1 | 1005.04 | 0.709
343.15 K, x1 = 0.1004 | 911.56 | 0.547
343.15 K, x1 = 0.2009 | 922.54 | 0.607
343.15 K, x1 = 0.3012 | 933.82 | 0.674
343.15 K, x1 = 0.4014 | 945.35 | 0.749
343.15 K, x1 = 0.5014 | 956.68 | 0.824
343.15 K, x1 = 0.6014 | 967.55 | 0.873
343.15 K, x1 = 0.7011 | 977.06 | 0.885
343.15 K, x1 = 0.8008 | 984.99 | 0.852
343.15 K, x1 = 0.9006 | 990.93 | 0.764
343.15 K, x1 = 1 | 993.69 | 0.632
353.15 K, x1 = 0.1004 | 901.58 | 0.499
353.15 K, x1 = 0.2009 | 912.55 | 0.551
353.15 K, x1 = 0.3012 | 923.82 | 0.608
353.15 K, x1 = 0.4014 | 935.28 | 0.67
353.15 K, x1 = 0.5014 | 946.48 | 0.73
353.15 K, x1 = 0.6014 | 957.19 | 0.771
353.15 K, x1 = 0.7011 | 966.49 | 0.78
353.15 K, x1 = 0.8008 | 974.17 | 0.751
353.15 K, x1 = 0.9006 | 979.73 | 0.677
353.15 K, x1 = 1 | 982.95 | 0.57

Source: the NIST ThermoML archive (doi:10.1021/je700755t)
